Experimental data published in patent US8816085B2 (Takeda GmbH, priority 2009, dated 2014).

Biological target: T1, PDE5A1 (human PDE5 from platelets) (Homo sapiens, UniProt O76074)
T1 construct: from tissue; host or cells: platelets from fresh blood of human donors (10,000 g supernatant of sonified platelets)
Assay: Inhibition of type 5 phosphodiesterase (PDE5) activity, modified SPA test
Assay type: biochemical
Conditions: PDE5-containing human platelet lysate, 0.5 μM cGMP, value classes, read-out: PDE5A1 inhibitory values [measured as −logIC50 (mol/l)] (converted)
Method: Method for Measuring Inhibition of the Type 5 Phosphodiesterase (PDE5) Activity:
As a source for human PDE5, platelets are used. For that purpose, 150 ml fresh blood from human donors anticoagulated with citrate [final concentration 0.3% (w/v)] is centrifuged at 200 g for 10 min to obtain the so-called platelet-rich-plasma (PRP) as a supernatant. 1/10 volume of ACD solution (85 mM Na3-citrate, 111 mM D-glucose, 71 mM citric acid, pH 4.4) is added to 9/10 volume of PRP. After centrifugation (1,400 g, 10 min) the cell pellet is resuspended in 3 ml homogenization buffer (NaCl 140 mM, KCl 3.8 mM, EGTA (ethylene glycol tetraacetic acid) 1 mM, MgCl2 1 mM, Tris-HCl 20 mM, beta-mercaptoethanol 1 mM, pH 8.2) plus protease-inhibitor mix giving rise to the final concentrations of 0.5 mM Pefablock (Roche), 10 μM Leupeptin, 5 μM Trypsininhibitor, 2 mM Benzamidin and 10 μM Pepstatin A. The suspension is sonified and thereafter centrifuged for 15 min at 10,000 g. The resulting supernatant (platelet lysate) is used for enzymatic testings.
PDE5A1 activity is inhibited by the compounds of the present subject matter in a modified SPA (scintillation proximity assay) test, supplied by Amersham Biosciences (see procedural instructions “phosphodiesterase [3H]cAMP SPA enzyme assay, code TRKQ 7090”), carried out in 96-well microtitre plates (MTP's). The test volume is 100 μl and contains 20 mM Tris buffer (pH 7.4), 0.1 mg of BSA (bovine serum albumin)/ml, 5 mM Mg^2+, 1 μM motapizone, 10 nM PDE2 inhibitor 2-(3,4-dimethoxybenzyl)-7-[(1R,2R)-2-hydroxy-1-(2-phenylethyl)propyl]-5-methylimidazo[5,1-t][1,2,4]triazin-4(3H)-one, 0.5 μM cGMP (cyclic guanosine monophosphate) (including about 50,000 cpm of [3H]cGMP as a tracer), 1 μl of the respective compound dilution in dimethylsulfoxide (DMSO) and sufficient PDE5-containing platelet lysat (10,000×g supernatant, see above) to ensure that 10-20 wt % of the cGMP is converted under the said experimental conditions. […] After a preincubation of 5 min at 37° C., the reaction is started by adding the substrate (cGMP) and the assay is incubated for a further 15 min; after that, it is stopped by adding SPA beads (50 μl). In accordance with the manufacturer's instructions, the SPA beads had previously been resuspended in water, but are then diluted 1:3 (v/v) in water; the diluted solution also contains 3 mM 8-methoxymethyl-3-isobutyl-1-methylxanthine (IBMX) to ensure a complete PDE activity stop. After the beads have been sedimented (>30 min), the MTP's are analyzed in commercially available luminescence detection devices. The corresponding IC50 values of the compounds for the inhibition of PDE activity are determined from the concentration-effect curves by means of non-linear regression.

Structure (SMILES) | IC50 [nM]
COc1ccc(OCC2CC2)c(-c2ccnc3c(C(=O)N[C@H]4CC[C@H](NC(=O)CO)CC4)c(C)[nH]c23)c1 [Example F28, 7-[2-(Cyclopropylmethoxy)-5-methoxyphenyl]-N-{trans-4-[(hydroxyacetyl)amino]cyclohexyl}-2-methyl-1H-pyrrolo[3,2-b]pyridine-3-carboxamide] | < 1
COc1ccc(OCC2CC2)c(-c2ccnc3c(C(=O)N[C@H]4CC[C@@H](NC(C)=O)CC4)c(C)[nH]c23)c1 [Example E46, N-[cis-4-(Acetylamino)cyclohexyl]-7-[2-(cyclopropylmethoxy)-5-methoxyphenyl]-2-methyl-1H-pyrrolo[3,2-b]pyridine-3-carboxamide] | < 1
COc1cc(-c2ccnc3c(C(=O)N[C@@H]4CCN(C(C)=O)C[C@H]4O)c(C)[nH]c23)c(OCC2CC2)cc1F (relative stereo) [Example E73, N-[(3R*,4R*)-1-Acetyl-3-hydroxypiperidin-4-yl]-7-[2-(cyclopropylmethoxy)-4-fluoro-5-methoxyphenyl]-2-methyl-1H-pyrrolo[3,2-b]pyridine-3-carboxamide] | < 1
COCC(=O)N[C@H]1CC[C@H](NC(=O)c2c(C)[nH]c3c(-c4cc(F)ccc4OCC4CC4)ccnc23)CC1 [Example E24, 7-[2-(Cyclopropylmethoxy)-5-fluorophenyl]-N-{trans-4-[(methoxyacetyl)amino]cyclohexyl}-2-methyl-1H-pyrrolo[3,2-b]pyridine-3-carboxamide] | < 1
CCC(=O)N1CCC(NC(=O)c2c(C)[nH]c3c(-c4cc(C)ccc4OCC4CC4)ccnc23)CC1 [Example E53, 7-[2-(Cyclopropylmethoxy)-5-methylphenyl]-2-methyl-N-(1-propanoylpiperidin-4-yl)-1H-pyrrolo[3,2-b]pyridine-3-carboxamide] | 1 to 10
COc1cc(OCC2CC2)c(-c2ccnc3c(C(=O)NC4CCN(C(=O)[C@H](C)O)CC4)c(C)[nH]c23)cc1F [Example F51, 7-[2-(Cyclopropylmethoxy)-5-fluoro-4-methoxyphenyl]-N-{1-[(2S)-2-hydroxypropanoyl]piperidin-4-yl}-2-methyl-1H-pyrrolo[3,2-b]pyridine-3-carboxamide] | < 1
CCC(=O)N[C@H]1CC[C@H](NC(=O)c2c(C)[nH]c3c(-c4cc(OC)c(F)cc4OCC4CC4)ccnc23)CC1 [Example E65, 7-[2-(Cyclopropylmethoxy)-4-fluoro-5-methoxyphenyl]-2-methyl-N-[trans-4-(propanoylamino)cyclohexyl]-1H-pyrrolo[3,2-b]pyridine-3-carboxamide] | < 1
COc1cc(-c2ccnc3c(C(=O)N[C@@H]4CCN(C(=O)CO)C[C@H]4O)c(C)[nH]c23)c(OCC2CC2)cc1F (relative stereo) [Example F48, 7-[2-(Cyclopropylmethoxy)-4-fluoro-5-methoxyphenyl]-N-[(3R*,4R*)-3-hydroxy-1-(hydroxyacetyl)piperidin-4-yl]-2-methyl-1H-pyrrolo[3,2-b]pyridine-3-carboxamide] | < 1
CCC(=O)N1CCC(NC(=O)c2c(C)[nH]c3c(-c4ccc(F)cc4OCC4CC4)ccnc23)CC1 [Example E11, 7-[2-(Cyclopropylmethoxy)-4-fluorophenyl]-2-methyl-N-(1-propanoylpiperidin-4-yl)-1H-pyrrolo[3,2-b]pyridine-3-carboxamide] | < 1
CC(=O)N[C@H]1CC[C@H](NC(=O)c2c(C)[nH]c3c(-c4cc(F)ccc4OCC4CC4)ccnc23)CC1 [Example E22, N-[trans-4-(Acetylamino)cyclohexyl]-7-[2-(cyclopropylmethoxy)-5-fluorophenyl]-2-methyl-1H-pyrrolo[3,2-b]pyridine-3-carboxamide] | < 1
COCC(=O)N1C[C@@H](O)[C@H](NC(=O)c2c(C)[nH]c3c(-c4cc(OC)ccc4OCC4CC4)ccnc23)C1 (relative stereo) [Example E51, 7-[2-(Cyclopropylmethoxy)-5-methoxyphenyl]-N-[(3R*,4R*)-4-hydroxy-1-(methoxyacetyl)pyrrolidin-3-yl]-2-methyl-1H-pyrrolo[3,2-b]pyridine-3-carboxamide] | 1 to 10
CCC(=O)N[C@H]1CC[C@H](NC(=O)c2c(C)[nH]c3c(-c4ccc(F)cc4OCC4CC4)ccnc23)CC1 [Example E14] | < 1
CCC(=O)N[C@H]1CC[C@H](NC(=O)c2c(C)[nH]c3c(-c4cc(OC)ccc4OCC4CC4)ccnc23)CC1 [Example E44, 7-[2-(Cyclopropylmethoxy)-5-methoxyphenyl]-2-methyl-N-[trans-4-(propanoylamino)cyclohexyl]-1H-pyrrolo[3,2-b]pyridine-3-carboxamide] | < 1
Cc1[nH]c2c(-c3cc(F)ccc3OCC3CC3)ccnc2c1C(=O)NC1CCN(C(=O)[C@H](C)O)CC1 [Example F13, 7-[2-(Cyclopropylmethoxy)-5-fluorophenyl]-N-{1-[(2S)-2-hydroxypropanoyl]piperidin-4-yl}-2-methyl-1H-pyrrolo[3,2-b]pyridine-3-carboxamide] | 1 to 10
COc1cc(-c2ccnc3c(C(=O)N[C@H]4CC[C@H](NC(=O)[C@H](C)O)CC4)c(C)[nH]c23)c(OCC2CC2)cc1F [Example F43, 7-[2-(Cyclopropylmethoxy)-4-fluoro-5-methoxyphenyl]-N-(trans-4-{[(2S)-2-hydroxypropanoyl]amino}cyclohexyl)-2-methyl-1H-pyrrolo[3,2-b]pyridine-3-carboxamide] | < 1
CCC(=O)N1C[C@@H](O)[C@H](NC(=O)c2c(C)[nH]c3c(-c4cc(OC)c(F)cc4OCC4CC4)ccnc23)C1 (relative stereo) [Example E71, 7-[2-(Cyclopropylmethoxy)-4-fluoro-5-methoxyphenyl]-N-[(3R*,4R*)-4-hydroxy-1-propanoylpyrrolidin-3-yl]-2-methyl-1H-pyrrolo[3,2-b]pyridine-3-carboxamide] | < 1
CCC(=O)N1CC[C@@H](NC(=O)c2c(C)[nH]c3c(-c4cc(F)ccc4OCC4CC4)ccnc23)[C@H](O)C1 (relative stereo) [Example E29, 7-[2-(Cyclopropylmethoxy)-5-fluorophenyl]-N-[(3R*,4R*)-3-hydroxy-1-propanoylpiperidin-4-yl]-2-methyl-1H-pyrrolo[3,2-b]pyridine-3-carboxamide] | 1 to 10
COc1ccc(-c2ccnc3c(C(=O)N[C@H]4CC[C@H](NC(=O)[C@H](C)O)CC4)c(C)[nH]c23)c(OCC2CC2)c1 [Example F23, 7-[2-(Cyclopropylmethoxy)-4-methoxyphenyl]-N-(trans-4-{[(2S)-2-hydroxypropanoyl]amino}cyclohexyl)-2-methyl-1H-pyrrolo[3,2-b]pyridine-3-carboxamide] | < 1
CC(=O)N[C@H]1CC[C@H](NC(=O)c2c(C)[nH]c3c(-c4c(OCC5CC5)ccc5c4OCO5)ccnc23)CC1 [Example E05, N-(trans-4-Acetamidocyclohexyl)-7-[5-(cyclopropylmethoxy)-1,3-benzodioxol-4-yl]-2-methyl-1H-pyrrolo[3,2-b]pyridine-3-carboxamide] | < 1
COc1cc(-c2ccnc3c(C(=O)NC4CCN(C(=O)[C@H](C)O)CC4)c(C)[nH]c23)c(OCC2CC2)cc1F [Example F41, 7-[2-(Cyclopropylmethoxy)-4-fluoro-5-methoxyphenyl]-N-{1-[(2S)-2-hydroxypropanoyl]piperidin-4-yl}-2-methyl-1H-pyrrolo[3,2-b]pyridine-3-carboxamide] | < 1
Cc1ccc(OCC2CC2)c(-c2ccnc3c(C(=O)N[C@H]4CC[C@@H](NC(=O)CO)CC4)c(C)[nH]c23)c1 [Example F38, 7-[2-(Cyclopropylmethoxy)-5-methylphenyl]-N-{cis-4-[(hydroxyacetyl)amino]cyclohexyl}-2-methyl-1H-pyrrolo[3,2-b]pyridine-3-carboxamide] | 1 to 10
COCC(=O)N[C@H]1CC[C@@H](NC(=O)c2c(C)[nH]c3c(-c4cc(OC)c(F)cc4OCC4CC4)ccnc23)CC1 [Example E69, 7-[2-(Cyclopropylmethoxy)-4-fluoro-5-methoxyphenyl]-N-{cis-4-[(methoxyacetyl)amino]cyclohexyl}-2-methyl-1H-pyrrolo[3,2-b]pyridine-3-carboxamide] | < 1
